Experimental data as given in PubChem BioAssay (NCI).
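Compound exposure: 48 hours, 5 concentrations, 96-well plates. GI50 marks 50% less growth. TGI: concentration producing complete growth inhibition.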

What was measured:
Test in all cases: DTP human tumour cell line panel, 48 h
[1] = test system: SF-268 CNS
[2] = test system: HCC-2998 colon
[3] = test system: UACC-257 melanoma
[4] = test system: NCI-H23 lung
[5] = test system: COLO 205 colon
[6] = test system: RPMI-8226 leukemia
[7] = test system: NCI/ADR-RES ovarian
[8] = test system: CCRF-CEM leukemia
[9] = test system: NCI-H522 lung
[10] = test system: 786-0 renal
[11] = test system: MOLT-4 leukemia
[12] = test system: SNB-19 CNS
[13] = test system: TK-10 renal
[14] = test system: MALME-3M melanoma
[15] = test system: T-47D breast
[16] = test system: OVCAR-3 ovarian
[17] = test system: UACC-62 melanoma
[18] = test system: OVCAR-8 ovarian
[19] = test system: PC-3 prostate
[20] = test system: DU-145 prostate
[21] = test system: UO-31 renal
[22] = test system: EKVX NSCLC
[23] = test system: SK-MEL-2 melanoma
[24] = test system: MDA-MB-231 breast
[25] = test system: HS 578T breast
[26] = test system: BT-549 breast
[27] = test system: SF-539 CNS
[28] = test system: HL-60(TB) leukemia
[29] = test system: OVCAR-4 ovarian
[30] = test system: K-562 leukemia
[31] = test system: SR leukemia
[32] = test system: ACHN renal
[33] = test system: MDA-MB-435
[34] = test system: HT29 colon
[35] = test system: A549 NSCLC
[36] = test system: SK-OV-3 ovarian
[37] = test system: A498 renal
[38] = test system: SK-MEL-28 melanoma
[39] = test system: SK-MEL-5 melanoma
[40] = test system: OVCAR-5 ovarian
[41] = test system: M14 melanoma
[42] = test system: NCI-H226 lung
[43] = test system: HOP-62 NSCLC
[44] = test system: U251 CNS
[45] = test system: RXF 393 renal
[46] = test system: CAKI-1 renal
[47] = test system: KM12 colon
[48] = test system: NCI-H460 lung
[49] = test system: MCF7 breast
[50] = test system: SN12C renal
[51] = test system: IGROV1 ovarian
[52] = test system: SW-620 colon
[53] = test system: SF-295 CNS
[54] = test system: HOP-92 NSCLC
[55] = test system: HCT-116 colon
[56] = test system: LOX IMVI melanoma
[57] = test system: HCT-15 colon
[58] = test system: SNB-75 CNS

CCOC(=O)c1cc(-c2ccc(OC)c(OC)c2)[nH]c1N/N=C/c1c(Cl)cccc1Cl
GI50 [1]: 2.29 µM | TGI [1]: 39.9 µM | GI50 [2]: 0.668 µM | TGI [2]: 4.38 µM | GI50 [3]: 13.2 µM | TGI [3]: > 71.9 µM | GI50 [4]: 2.97 µM | TGI [4]: 14 µM | GI50 [5]: 2.9 µM | TGI [5]: > 100 µM | GI50 [6]: 3.31 µM | TGI [6]: > 37.5 µM | GI50 [7]: 1.15 µM | TGI [7]: 4.53 µM | GI50 [8]: 2.22 µM | TGI [8]: > 100 µM | GI50 [9]: 2.27 µM | TGI [9]: 30 µM | GI50 [10]: 2.77 µM | TGI [10]: 12.3 µM | GI50 [11]: 3.27 µM | TGI [11]: > 80.9 µM | GI50 [12]: 2.6 µM | TGI [12]: 34.2 µM | GI50 [13]: 2.5 µM | TGI [13]: 11.4 µM | GI50 [14]: 2.88 µM | TGI [14]: 16.7 µM | GI50 [15]: 5.98 µM | TGI [15]: 55.4 µM | GI50 [16]: 0.74 µM | TGI [16]: 2.64 µM | GI50 [17]: 0.704 µM | TGI [17]: 6.64 µM | GI50 [18]: 3.69 µM | TGI [18]: > 100 µM | GI50 [19]: 2.14 µM | TGI [19]: 19 µM | GI50 [20]: 2.38 µM | TGI [20]: 8.5 µM | GI50 [21]: 4.32 µM | TGI [21]: 37.6 µM | GI50 [22]: 5.37 µM | TGI [22]: 19.9 µM | GI50 [23]: 7.28 µM | TGI [23]: 48.6 µM | GI50 [24]: 2.9 µM | TGI [24]: 8.84 µM | GI50 [25]: 2.71 µM | TGI [25]: 18.8 µM | GI50 [26]: 2.49 µM | TGI [26]: 12.5 µM | GI50 [27]: 1.44 µM | TGI [27]: 5.27 µM | GI50 [28]: 1.86 µM | TGI [28]: 6.15 µM | GI50 [29]: 4.46 µM | TGI [29]: > 62.7 µM | GI50 [30]: 1.69 µM | TGI [30]: > 100 µM | GI50 [31]: 0.41 µM | TGI [31]: 1.93 µM | GI50 [32]: 3.23 µM | TGI [32]: 16.2 µM | GI50 [33]: 0.307 µM | TGI [33]: 0.829 µM | GI50 [34]: 0.913 µM | TGI [34]: 6.28 µM | GI50 [35]: 3.06 µM | TGI [35]: > 100 µM | GI50 [36]: 1.85 µM | TGI [36]: 17.6 µM | GI50 [37]: 1.03 µM | TGI [37]: 7.77 µM | GI50 [38]: 1.12 µM | TGI [38]: > 100 µM | GI50 [39]: 0.956 µM | TGI [39]: 8.33 µM | GI50 [40]: 4.56 µM | TGI [40]: 20.3 µM | GI50 [41]: 2.32 µM | TGI [41]: 14.9 µM | GI50 [42]: 1.81 µM | TGI [42]: 9.36 µM | GI50 [43]: 2.51 µM | TGI [43]: 14.5 µM | GI50 [44]: 2.15 µM | TGI [44]: 18.2 µM | GI50 [45]: 1.91 µM | TGI [45]: 9.77 µM | GI50 [46]: 1.59 µM | TGI [46]: 11.4 µM | GI50 [47]: 0.636 µM | TGI [47]: 9.98 µM | GI50 [48]: 1.35 µM | TGI [48]: > 35.9 µM | GI50 [49]: 0.415 µM | TGI [49]: 17.8 µM | GI50 [50]: 3.64 µM | TGI [50]: 22.3 µM | GI50 [51]: 2.45 µM | TGI [51]: 30.4 µM | GI50 [52]: 2.5 µM | TGI [52]: > 44.5 µM | GI50 [53]: 0.461 µM | TGI [53]: 8.31 µM | GI50 [54]: 4.58 µM | TGI [54]: 26.8 µM | GI50 [55]: 1.39 µM | TGI [55]: 5.44 µM | GI50 [56]: 3.6 µM | TGI [56]: 20.5 µM | GI50 [57]: 2.38 µM | TGI [57]: 10.7 µM | GI50 [58]: 1.85 µM | TGI [58]: 5.94 µM

C=C1CCC2C3(C)COC(c4ccc(Cl)cc4)OC3CCC2(C)C1/C=C/C1=CCOC1=O (configuration not stated)
GI50 [1]: 19.9 µM | TGI [1]: > 100 µM | GI50 [2]: 6.73 µM | TGI [2]: > 100 µM | GI50 [3]: 4.63 µM | TGI [3]: > 100 µM | GI50 [4]: 3.19 µM | TGI [4]: > 100 µM | GI50 [6]: 0.602 µM | TGI [6]: > 100 µM | GI50 [7]: 4.98 µM | TGI [7]: > 100 µM | GI50 [8]: 1.56 µM | TGI [8]: 12.6 µM | GI50 [9]: 1.11 µM | TGI [9]: 36.7 µM | GI50 [10]: 29.8 µM | TGI [10]: > 100 µM | GI50 [11]: 4.5 µM | TGI [11]: > 100 µM | GI50 [12]: 15.9 µM | TGI [12]: 88.4 µM | GI50 [13]: 14.4 µM | TGI [13]: > 100 µM | GI50 [14]: 11.3 µM | TGI [14]: 71.4 µM | GI50 [15]: 0.821 µM | TGI [15]: 21.4 µM | GI50 [16]: 7.52 µM | TGI [16]: 56.8 µM | GI50 [17]: 4 µM | TGI [17]: > 100 µM | GI50 [18]: 4.07 µM | TGI [18]: > 100 µM | GI50 [19]: 1.67 µM | TGI [19]: 69.9 µM | GI50 [20]: 24 µM | TGI [20]: > 100 µM | GI50 [21]: > 100 µM | TGI [21]: > 100 µM | GI50 [22]: 0.751 µM | TGI [22]: 29.8 µM | GI50 [23]: 17.9 µM | TGI [23]: > 100 µM | GI50 [24]: 6.68 µM | TGI [24]: > 100 µM | GI50 [25]: 11.5 µM | TGI [25]: 42.5 µM | GI50 [26]: 4.79 µM | TGI [26]: 80.5 µM | GI50 [27]: 11.2 µM | TGI [27]: > 100 µM | GI50 [28]: 17 µM | TGI [28]: > 100 µM | TGI [30]: > 100 µM | GI50 [31]: 1.37 µM | TGI [31]: > 100 µM | GI50 [32]: 12.1 µM | TGI [32]: 50.9 µM | GI50 [33]: 4.19 µM | TGI [33]: > 100 µM | GI50 [34]: 5.52 µM | TGI [34]: > 100 µM | GI50 [35]: 2.37 µM | TGI [35]: 32.5 µM | GI50 [36]: 16.7 µM | TGI [36]: 74.5 µM | GI50 [37]: 2.18 µM | TGI [37]: 31.5 µM | GI50 [38]: 21.7 µM | TGI [38]: > 100 µM | GI50 [39]: 1.88 µM | TGI [39]: 31.1 µM | GI50 [40]: 70.2 µM | TGI [40]: > 100 µM | GI50 [41]: 27.2 µM | TGI [41]: > 100 µM | GI50 [42]: 7.06 µM | TGI [42]: > 100 µM | GI50 [43]: 26.8 µM | TGI [43]: > 100 µM | GI50 [44]: 5.68 µM | TGI [44]: 46.2 µM | GI50 [45]: 12 µM | TGI [45]: 58.2 µM | GI50 [46]: 6.87 µM | TGI [46]: > 100 µM | GI50 [47]: 9.19 µM | TGI [47]: > 100 µM | GI50 [48]: 4.42 µM | TGI [48]: > 100 µM | GI50 [49]: 3.35 µM | TGI [49]: > 100 µM | GI50 [50]: 7.56 µM | TGI [50]: > 100 µM | GI50 [51]: 50 µM | TGI [51]: > 100 µM | GI50 [52]: > 100 µM | TGI [52]: > 100 µM | GI50 [53]: 1.83 µM | TGI [53]: 22.5 µM | GI50 [54]: 9.96 µM | TGI [54]: 39.1 µM | GI50 [55]: 2.54 µM | TGI [55]: > 100 µM | GI50 [56]: 0.985 µM | TGI [56]: 17.6 µM | GI50 [57]: 4.79 µM | TGI [57]: > 100 µM | GI50 [58]: 12.1 µM | TGI [58]: 41.5 µM
